Assay results reported in US4663068A, “Bleach-stable deodorant perfumes in detergent powders” (priority 1983, dated 1987).

Experiments:
[1] = Bleach Stability Test (triangle test after storage with perborate and TAED); assay type: physicochemical; details: number of 20 assessors correctly choosing odd one out; 0.2% material in powder with perborate and TAED, 45° C. one week; up to 9 = bleach-stable, 10 or more = unstable
Experimental: (i) dosing a perfume material into the standard unperfumed washing powder and incubating the dosed powder at 20° C. in a sealed container for seven days;
(ii) dividing the dosed powder into two portions and adding to each portion sodium perborate tetrahydrate together with either TAED granules or sodium sulphate (to act as an inert filler in place of TAED) to provide test and control formulations having the following constitution: […]
(iii) incubating both test and control powders in sealed containers at 45° C. for a further seven days; and
(iv) assessing samples of the test and control powders according to a standard triangle test as described in "Manual on Sensory Testing Methods" published by the American Society for Testing and Materials (1969), using a panel of 20 assessors, who are instructed to judge by smell which of the three powder samples is the odd one out, the perfume material being designated a bleach-stable deodorant perfume component when the odd one out is correctly identified by no more than 9 of the 20 assessors.
The stability of perfume materials to the presence of a bleaching composition is assessed according to a standard test which involves the exposure of these individual perfume materials to a mixture of sodium perborate tetrahydrate and TAED in a detergent fabric washing powder under standard conditions of storage.
In order to perform this test, a detergent powder base is prepared according to a standard blowing technique to form a granulated product. The formulation of the detergent powder base is as follows: […]
A selected perfume material is then incorporated by mixing with a portion of the blown base powder to a final concentration of 0.2% by weight of the finished product, and stored at 20° C. in a sealed container for one week with occasional mixing to ensure an even concentration of the perfume material throughout the powder. The sample is the split into two portions and further ingredients mixed in to provide the following test and control formulations:
100 g samples of each control and test batch of powder containing a selected perfume material are then sealed in containers and stored at 45° C. for one week. Each sample is then assessed in a forced choice triangle test according to the following procedure:
Three samples of powder, either one from the test batch and two from the control batch, or two from the test batch and one from the control batch are then assessed by a panel of 20 assessors who are asked to select by sniffing which of the three samples is the "odd one out".
The fragrance of samples containing bleach-stable perfume materials should be unchanged following incubation in the presence of the perborate and TAED, and accordingly there is a 1 in 3 chance of an assessor selecting correctly the control or test sample as the "odd one out".
The Triangle Test procedure is described and discussed in "Manual on Sensory Testing Methods" published by the American Society for Testing and Materials (1969).
The results of each Triangle Test are calculated as follows: […]
If 10 or more of the 20 assessors choose correctly the "odd one out" of the three samples, then the perfume material under test is judged to be unstable in the presence of bleach. If, however, up to 9 of the 20 accessors choose correctly the "odd one out" of 3 samples, then the perfume material under test is judged to be stable in the presence of bleach.

[2] = Morpholine Test (depression of partial vapour pressure of morpholine, Raoult Variance Ratio); details: morpholine 0.25 g + material 1 g, 37° C., headspace GC
[3] = target: T1, lipoxidase (EC1.13.1.13) (Glycine max, UniProt P08170); experiment: Lipoxidase Test (inhibition of oxidation of linoleic acid by lipoxidase); assay type: biochemical; details: test substrate made with 0.5% by weight solution of material in ethanol; for inhibition at 0.5 % strength: borate buffer pH 9.0, 234 nm, read-out: LIC value (Lipoxidase-Inhibiting Capacity); for LIC value (Lipoxidase-Inhibiting Capacity): % inhibition, borate buffer pH 9.0, 234 nm
T1 sequence (P08170 1-839): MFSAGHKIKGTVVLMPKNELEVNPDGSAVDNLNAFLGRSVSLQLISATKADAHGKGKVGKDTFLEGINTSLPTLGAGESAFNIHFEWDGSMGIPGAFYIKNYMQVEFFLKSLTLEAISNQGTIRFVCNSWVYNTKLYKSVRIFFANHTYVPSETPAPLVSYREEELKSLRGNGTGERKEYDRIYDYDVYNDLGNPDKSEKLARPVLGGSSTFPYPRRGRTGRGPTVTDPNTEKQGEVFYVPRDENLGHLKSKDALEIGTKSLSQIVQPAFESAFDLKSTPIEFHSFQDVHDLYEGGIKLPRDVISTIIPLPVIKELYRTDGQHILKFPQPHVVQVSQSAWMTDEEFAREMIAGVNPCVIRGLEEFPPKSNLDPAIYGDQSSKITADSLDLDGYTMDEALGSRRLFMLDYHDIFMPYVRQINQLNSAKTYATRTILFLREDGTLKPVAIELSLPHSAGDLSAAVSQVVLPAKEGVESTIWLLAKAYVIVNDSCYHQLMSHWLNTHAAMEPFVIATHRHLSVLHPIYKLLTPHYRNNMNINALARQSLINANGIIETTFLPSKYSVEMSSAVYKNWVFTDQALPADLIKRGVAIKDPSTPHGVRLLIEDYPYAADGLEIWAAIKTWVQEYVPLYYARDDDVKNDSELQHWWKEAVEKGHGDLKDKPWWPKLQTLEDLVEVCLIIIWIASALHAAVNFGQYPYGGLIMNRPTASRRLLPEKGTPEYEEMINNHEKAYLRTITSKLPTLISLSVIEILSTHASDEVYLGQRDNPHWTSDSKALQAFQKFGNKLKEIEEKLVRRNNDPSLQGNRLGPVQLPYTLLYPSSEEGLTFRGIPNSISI

Molecule | BST panel score [1] | RVR value (Raoult Variance Ratio) [2] | inhibition at 0.5 % strength [3] [%] | LIC value (Lipoxidase-Inhibiting Capacity) [3] [%]
CC1COCc2cc3c(cc21)C(C)(C)C(C)C3(C)C (stereo not drawn) [1,3,4,6,7,8-Hexahydro-4,6,6,7,8,8-hexamethyl cyclopenta-α-2-benzopyran] | 5 |  |  | 
CCCCCCCC1CCCC1=O (stereo not drawn) [2-n-Heptylcyclo-pentanone] | 7 | 1.05 |  | 
CC1(C)CCCC2(C)C1CCC1(C)OCCC12 (stereo not drawn) [3a-Methyl-dodecahydro-6,6,9a-trimethylnaphtho-2(2,1-b)furan] | 5 | 1.30 |  | 
O=C(OCc1ccccc1)c1ccccc1O [Benzyl salicylate] | 17 | 1.58 |  | 
Cc1ccc(C(C)C)cc1O [Carvacrol] | 6 | 1.43 |  | 
OC/C=C/c1ccccc1 [Cinnamic alcohol] | 9 | 1.28 |  | 
O=c1ccc2ccccc2o1 [Coumarin] | 10 | 1.22 |  | 
CCOC(=O)c1ccccc1C(=O)OCC [Diethyl phthalate] | 4 | 1.20 |  | 
CCOC(=O)c1ccccc1O [Ethyl salicylate] | 7 | 1.19 |  | 
CCOc1cc(C=O)ccc1O [Ethyl vanillin] | 12 | 1.43 |  | 
CCCCCCOC(=O)c1ccccc1O [Hexyl salicylate] | 5 |  | 100 | 
COC(=O)c1ccccc1N [Methyl anthranilate] | 6 | 1.20 | 69 | 
CCCCCCC(CCOC(C)=O)OC(C)=O (stereo not drawn) [Nonanediol-1,3-diacetate] | 8 | 1.17 |  | 
CCCCCC1CCC(=O)O1 (stereo not drawn) [Nonanolide-1,4] | 5 | 0.87 |  | 
OCCc1ccccc1 [Phenylethyl alcohol] | 10 | 1.24 |  | 
O=C(Cc1ccccc1)OCCc1ccccc1 [Phenylethyl phenyl acetate] | 7 | 1.22 |  | 
CC(C)CCOC(=O)c1ccccc1O [iso-Amyl salicylate] | 9 | 1.24 |  | 
CC(C)Cc1ccc2ncccc2c1 [iso-Butyl quinoline] | 5 | 1.10 |  | 
C/C=C\c1ccc(O)c(OC)c1 [iso-Eugenol] | 4 | 1.48 |  | 
CC(=O)OC1CCCCC1C(C)(C)C (stereo not drawn) [o-t-Butylcyclohexyl acetate] | 8 | 1.08 |  | 
CCC(C)(C)C1CCC(=O)CC1 [p-t-Amyl cyclohexanone] | 8 | 1.10 |  | 
CC(=O)OC1CCC(C(C)(C)C)CC1 (stereo not drawn) [p-t-Butyl cyclohexyl acetate] | 10 | 0.98 |  | 
CC(C=O)Cc1ccc(C(C)(C)C)cc1 (stereo not drawn) [p-t-Butyl-α-methyl hydrocinnamic aldehyde] | 13 |  |  | 
CC(=O)C(C)=CC1C(C)=CCCC1(C)C (stereo not drawn) [α-iso-Methyl ionone] | 7 |  |  | 
CC(=O)c1ccc2ccccc2c1 [β-Methyl naphthyl ketone] | 3 | 0.96 |  | 
Dimyrcetol | 9 | 1.22 |  | 16
Hydroxymethyl isopropyl cyclopentane | 8 | 1.23 |  | 60
Tetrahydromuguol | 8 | 1.23 |  | 24
i-Nonyl acetate | 4 | 0.83 |  | 50
i-Nonyl formate | 8 | 1.49 |  | 19
